Each structure is given as a SMILES string.

The values below come from patent US20250151728A1, “ANTIMICROBIAL SYSTEM WITH BETA CARBOLINE ALKALOID AND INDOLE ALKALOID AND COMPOSITIONS COMPRISING THEM” (Conopco, Inc., d/b/a UNILEVER, priority 2021, published 2025).

Assay [1] has as its system Enterobacter gergoviae ATCC 33028. The experiment in a line: Liquid broth assay (MIC and checkerboard) against Enterobacter gergoviae. It counts as cell-based. The conditions noted are these: Pluralibacter gergoviae, ATCC33028, component by itself, 30° C., 24 hours, MIC = <25% growth vs control (OD600nm), read-out: minimal inhibitory concentration (MIC). From the text: (§1) Naturally derived antimicrobial systems were made, as shown below by combining the indole alkaloid and beta carboline alkaloid. Two pools were set up and each pool contained 1 organism. The strains involved were Enterobacter gergoviae ATCC 33028 of the family Pluralibacter gergoviae, a Gram-negative and Aspergillus brasiliensis ATCC 16404. FIC test range was 16 times greater than the projected MIC for each sample.
(§2) The differing behaviors of inhibitory antimicrobials in isolation and mixtures have been widely explored using the concept of the Fractional Concentration and Fractional Inhibitory Concentration (FIC). See for instance JRW Lambert and R Lambert, J. Appl. Microbiol 95, 734 (2003); T. Jadavji, CG Prober and R Cheung, Antibacterial Agents and Chemotherapy 26, 91 (1984), and WO 2004/006876. MIC is the minimum inhibitory concentration a component prevents visible growth of a microbe. The FC and FIC parameters can be defined as follows: […]
(§3) Liquid broth assays (MIC and checkerboard) were conducted to identify the minimum concentration(s) of individual and binary combinations of natural preservation materials. […] Each of the two-preservation chemical/broth mixes was then combined in a third 96 well plate at varying concentrations and then inoculated with 1-5×10^6 microorganisms and incubated at 30° C. for 24 hours, after which optical densities at OD600nm were measured.

Assay [2] relates to Aspergillus brasiliensis ATCC 16404. The experiment in a line: Liquid broth assay (MIC and checkerboard) against Aspergillus brasiliensis. The conditions noted are these: ATCC16404, component by itself, 30° C., 24 hours, MIC = <25% growth vs control (OD600nm). In kind it is cell-based.
From the text: as §1, §2, §3

For the compound `CN(C)Cc1c[nH]c2ccccc12` [Gramine, 1-(1H-Indol-3-yl)-N,N-dimethylmethanamine], the MIC in assay [1] and in assay [2] was 6250 µg/mL throughout.
